Measured values reported in PubChem BioAssay (NCI).
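Where inhibition never reached the appropriate level, the endpoint shown equals the highest concentration tested. Otherwise, values were interpolated linearly from a five-concentration, 48-hour dose response in 96-well plates. At the TGI there is no net growth.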

Legend:
Assay in all cases: growth of human tumour cells (NCI), 48 h
786-0 renal = tested on: 786-0 renal
A498 renal = tested on: A498 renal
A549 NSCLC = tested on: A549 NSCLC
ACHN renal = tested on: ACHN renal
BT-549 breast = tested on: BT-549 breast
CAKI-1 renal = tested on: CAKI-1 renal
CCRF-CEM leukemia = tested on: CCRF-CEM leukemia
COLO 205 colon = tested on: COLO 205 colon
DU-145 prostate = tested on: DU-145 prostate
EKVX NSCLC = tested on: EKVX NSCLC
HCC-2998 colon = tested on: HCC-2998 colon
HCT-116 colon = tested on: HCT-116 colon
HCT-15 colon = tested on: HCT-15 colon
HL-60(TB) leukemia = tested on: HL-60(TB) leukemia
HOP-92 NSCLC = tested on: HOP-92 NSCLC
HS 578T breast = tested on: HS 578T breast
HT29 colon = tested on: HT29 colon
IGROV1 ovarian = tested on: IGROV1 ovarian
KM12 colon = tested on: KM12 colon
LOX IMVI melanoma = tested on: LOX IMVI melanoma
M14 melanoma = tested on: M14 melanoma
MALME-3M melanoma = tested on: MALME-3M melanoma
MCF7 breast = tested on: MCF7 breast
MDA-MB-231 breast = tested on: MDA-MB-231 breast
MDA-MB-435 = tested on: MDA-MB-435
MDA-N = tested on: MDA-N
MOLT-4 leukemia = tested on: MOLT-4 leukemia
NCI-H226 lung = tested on: NCI-H226 lung
NCI-H23 lung = tested on: NCI-H23 lung
NCI-H460 lung = tested on: NCI-H460 lung
NCI-H522 lung = tested on: NCI-H522 lung
NCI/ADR-RES ovarian = tested on: NCI/ADR-RES ovarian
OVCAR-3 ovarian = tested on: OVCAR-3 ovarian
OVCAR-4 ovarian = tested on: OVCAR-4 ovarian
OVCAR-5 ovarian = tested on: OVCAR-5 ovarian
OVCAR-8 ovarian = tested on: OVCAR-8 ovarian
PC-3 prostate = tested on: PC-3 prostate
RPMI-8226 leukemia = tested on: RPMI-8226 leukemia
SF-268 CNS = tested on: SF-268 CNS
SF-295 CNS = tested on: SF-295 CNS
SF-539 CNS = tested on: SF-539 CNS
SK-MEL-2 melanoma = tested on: SK-MEL-2 melanoma
SK-MEL-28 melanoma = tested on: SK-MEL-28 melanoma
SK-MEL-5 melanoma = tested on: SK-MEL-5 melanoma
SK-OV-3 ovarian = tested on: SK-OV-3 ovarian
SN12C renal = tested on: SN12C renal
SNB-19 CNS = tested on: SNB-19 CNS
SNB-75 CNS = tested on: SNB-75 CNS
SW-620 colon = tested on: SW-620 colon
T-47D breast = tested on: T-47D breast
TK-10 renal = tested on: TK-10 renal
U251 CNS = tested on: U251 CNS
UACC-257 melanoma = tested on: UACC-257 melanoma
UACC-62 melanoma = tested on: UACC-62 melanoma
UO-31 renal = tested on: UO-31 renal
HOP-62 NSCLC = tested on: HOP-62 NSCLC
K-562 leukemia = tested on: K-562 leukemia
RXF 393 renal = tested on: RXF 393 renal

CCC12CCCN3CCc4c(n(c5ccccc45)C(O)(C(=O)OC)C1)C32 (stereo unspecified)
TGI (786-0 renal): > 100 µM | TGI (A498 renal): > 100 µM | TGI (A549 NSCLC): > 100 µM | TGI (ACHN renal): > 100 µM | TGI (BT-549 breast): > 100 µM | TGI (CAKI-1 renal): > 100 µM | TGI (CCRF-CEM leukemia): > 100 µM | TGI (COLO 205 colon): > 100 µM | TGI (DU-145 prostate): > 100 µM | TGI (EKVX NSCLC): > 100 µM | TGI (HCC-2998 colon): > 100 µM | TGI (HCT-116 colon): > 100 µM | TGI (HCT-15 colon): > 100 µM | TGI (HL-60(TB) leukemia): > 100 µM | TGI (HOP-92 NSCLC): > 100 µM | TGI (HS 578T breast): > 100 µM | TGI (HT29 colon): > 100 µM | TGI (IGROV1 ovarian): > 100 µM | TGI (KM12 colon): > 100 µM | TGI (LOX IMVI melanoma): > 100 µM | TGI (M14 melanoma): > 100 µM | TGI (MALME-3M melanoma): > 100 µM | TGI (MCF7 breast): > 100 µM | TGI (MDA-MB-231 breast): > 100 µM | TGI (MDA-MB-435): > 100 µM | TGI (MDA-N): > 100 µM | TGI (MOLT-4 leukemia): > 100 µM | TGI (NCI-H226 lung): > 100 µM | TGI (NCI-H23 lung): > 100 µM | TGI (NCI-H460 lung): > 100 µM | TGI (NCI-H522 lung): > 100 µM | TGI (NCI/ADR-RES ovarian): > 100 µM | TGI (OVCAR-3 ovarian): > 100 µM | TGI (OVCAR-4 ovarian): > 100 µM | TGI (OVCAR-5 ovarian): > 100 µM | TGI (OVCAR-8 ovarian): > 100 µM | TGI (PC-3 prostate): > 100 µM | TGI (RPMI-8226 leukemia): > 100 µM | TGI (SF-268 CNS): > 100 µM | TGI (SF-295 CNS): > 100 µM | TGI (SF-539 CNS): > 100 µM | TGI (SK-MEL-2 melanoma): > 100 µM | TGI (SK-MEL-28 melanoma): > 100 µM | TGI (SK-MEL-5 melanoma): > 100 µM | TGI (SK-OV-3 ovarian): > 100 µM | TGI (SN12C renal): > 100 µM | TGI (SNB-19 CNS): > 100 µM | TGI (SNB-75 CNS): > 100 µM | TGI (SW-620 colon): > 100 µM | TGI (T-47D breast): > 100 µM | TGI (TK-10 renal): > 100 µM | TGI (U251 CNS): > 100 µM | TGI (UACC-257 melanoma): > 100 µM | TGI (UACC-62 melanoma): > 100 µM | TGI (UO-31 renal): > 100 µM

O=C1c2ccccc2-c2c1c(-c1ccc(O)cc1O)nc1ccc3ccccc3c21
TGI (786-0 renal): > 100 µM | TGI (A498 renal): > 100 µM | TGI (A549 NSCLC): > 100 µM | TGI (ACHN renal): > 100 µM | TGI (BT-549 breast): > 100 µM | TGI (CAKI-1 renal): > 100 µM | TGI (CCRF-CEM leukemia): > 100 µM | TGI (COLO 205 colon): > 100 µM | TGI (DU-145 prostate): > 100 µM | TGI (EKVX NSCLC): > 100 µM | TGI (HCC-2998 colon): > 100 µM | TGI (HCT-116 colon): > 100 µM | TGI (HCT-15 colon): > 100 µM | TGI (HOP-62 NSCLC): > 100 µM | TGI (HS 578T breast): 75.2 µM | TGI (HT29 colon): > 100 µM | TGI (K-562 leukemia): > 100 µM | TGI (KM12 colon): > 100 µM | TGI (M14 melanoma): > 100 µM | TGI (MALME-3M melanoma): > 100 µM | TGI (MCF7 breast): > 100 µM | TGI (MDA-MB-231 breast): > 100 µM | TGI (MDA-MB-435): > 100 µM | TGI (MDA-N): > 100 µM | TGI (MOLT-4 leukemia): > 100 µM | TGI (NCI-H226 lung): > 100 µM | TGI (NCI-H23 lung): > 100 µM | TGI (NCI-H460 lung): > 100 µM | TGI (NCI/ADR-RES ovarian): > 100 µM | TGI (OVCAR-4 ovarian): > 100 µM | TGI (OVCAR-5 ovarian): > 100 µM | TGI (OVCAR-8 ovarian): > 100 µM | TGI (PC-3 prostate): > 100 µM | TGI (RPMI-8226 leukemia): > 100 µM | TGI (SF-268 CNS): > 100 µM | TGI (SF-295 CNS): > 100 µM | TGI (SF-539 CNS): > 100 µM | TGI (SK-MEL-2 melanoma): > 100 µM | TGI (SK-MEL-28 melanoma): > 100 µM | TGI (SK-OV-3 ovarian): > 100 µM | TGI (SN12C renal): > 100 µM | TGI (SNB-19 CNS): > 100 µM | TGI (SNB-75 CNS): > 100 µM | TGI (SW-620 colon): > 100 µM | TGI (T-47D breast): > 100 µM | TGI (U251 CNS): > 100 µM | TGI (UACC-257 melanoma): > 100 µM | TGI (UACC-62 melanoma): > 100 µM | TGI (UO-31 renal): > 100 µM

CC1(C)SC2C(NC(=O)C(C(=O)O)c3ccccc3)C(=O)N2C1C(=O)O (stereo unspecified)
TGI (786-0 renal): > 100 µM | TGI (A498 renal): > 100 µM | TGI (ACHN renal): > 100 µM | TGI (BT-549 breast): > 100 µM | TGI (CAKI-1 renal): > 100 µM | TGI (CCRF-CEM leukemia): > 100 µM | TGI (COLO 205 colon): > 100 µM | TGI (DU-145 prostate): > 100 µM | TGI (EKVX NSCLC): > 100 µM | TGI (HCT-116 colon): > 100 µM | TGI (HCT-15 colon): > 100 µM | TGI (HL-60(TB) leukemia): > 100 µM | TGI (HOP-62 NSCLC): > 100 µM | TGI (HS 578T breast): > 100 µM | TGI (HT29 colon): > 100 µM | TGI (IGROV1 ovarian): > 100 µM | TGI (K-562 leukemia): > 100 µM | TGI (KM12 colon): > 100 µM | TGI (LOX IMVI melanoma): > 100 µM | TGI (M14 melanoma): > 100 µM | TGI (MALME-3M melanoma): > 100 µM | TGI (MCF7 breast): > 100 µM | TGI (MDA-MB-231 breast): > 100 µM | TGI (MDA-MB-435): > 100 µM | TGI (MDA-N): > 100 µM | TGI (MOLT-4 leukemia): > 100 µM | TGI (NCI-H226 lung): > 100 µM | TGI (NCI-H23 lung): > 100 µM | TGI (NCI/ADR-RES ovarian): > 100 µM | TGI (OVCAR-3 ovarian): > 100 µM | TGI (OVCAR-5 ovarian): > 100 µM | TGI (OVCAR-8 ovarian): > 100 µM | TGI (PC-3 prostate): > 100 µM | TGI (RPMI-8226 leukemia): > 100 µM | TGI (RXF 393 renal): > 100 µM | TGI (SF-268 CNS): > 100 µM | TGI (SF-295 CNS): > 100 µM | TGI (SF-539 CNS): > 100 µM | TGI (SK-MEL-2 melanoma): > 100 µM | TGI (SK-MEL-28 melanoma): > 100 µM | TGI (SK-MEL-5 melanoma): > 100 µM | TGI (SK-OV-3 ovarian): > 100 µM | TGI (SN12C renal): > 100 µM | TGI (SNB-19 CNS): > 100 µM | TGI (SNB-75 CNS): > 100 µM | TGI (SW-620 colon): > 100 µM | TGI (T-47D breast): > 100 µM | TGI (TK-10 renal): > 100 µM | TGI (U251 CNS): > 100 µM | TGI (UACC-257 melanoma): > 100 µM | TGI (UACC-62 melanoma): > 100 µM | TGI (UO-31 renal): > 100 µM
